Key:
[1] = tested on: HT-29 cells; test: LC-MS of lysed cells after dosing with the nanocage-antibody complex; format: cell-based; details: delivered by the nanocage with anti-EGFR; cells washed prior to lysis
Description: HT-29 cells were grown in DMEM medium with 10% FBS overnight. Cells were then treated with the nanocage-antibody complex (100 μl) at 37° C. for different 48 h and 72 h. After incubation, the cells were washed 3× with cold PBS. Re-suspended cells were analysed by LC-MS (Agilent 6550), data were quantified using a 20 ppm window for Dox and PI based on a calibrated standard;
Purified protein and cell extract samples were analysed by LCMS on an Agilent 6550. LC separation was achieved using a 1290 Infinity system (Agilent, Santa Clara, Calif.) and a Vydac 214MS C4 column, 2.1×150 mm and […], (Grace, Columbia, Md.) at a temperature of 35° C. with a buffer flow rate of 0.2 ml/min. with a denaturing mobile phase: buffer A was 0.1% formic acid in water and buffer B was 0.1% formic acid in acetonitrile. Elution of components was achieved using a linear gradient from 3% to 40% buffer B over 18.5 min. On-line mass spectra were accumulated on a 6550 quadrupole time-of-flight instrument with a dual electrospray Jet Stream source (Agilent). Mass spectra were acquired of the m/z range of 100-1700 at a rate of 0.6 spectra per second. […]
Further evaluation of drug delivery was performed by mass spectrometry. Following the dosing procedure used above, cells were washed prior to lysis and drug presence measured by LC-MS (Agilent 6550). […]

[2] = tested on: HT29 cells; test: Flow cytometry, antibody directed cell binding of GFP nanocage; format: cell-based
Description: (§1) Purified wt ZZ-GFP-hFTN (20 μg) was mixed with either anti-NK1.1 antibody (1 μg) or anti-EGFR antibody (1 μg) in 210 μl of PBS. For each assay, 50 μl of the nanocage-antibody was mixed with 1×10^6 cells of either HT29 or MNK1.1 in 100 μl. Cells were analysed an a BD Fortessa using the FITC channel (ex 488 nm; emm 530-30 nm) to observe GFP fluorescence. […] Nanocage antibody are shown with MNK1.1 cells (B) and HT29 cells (D);
(§2) Flow cytometry was performed on a BD Fortessa using the FITC channel to observe GFP (ex 488 nm; emm 530-30 nm; ToPro-3 was imaged in red channel (640 nm ex; 670/14 emission). Data was analysed using Flow-Jo software.
(§3) Ferritin fusions containing an N-terminal ZZ domain, in principle, should be able to bind to IgG isotype antibodies since the Z-domain is a synthetic derivative of an IgG binding domain from Staphylococcus aureus protein A. The inventors evaluated the specificity with which they can direct the targeting of the ferritin nanocage to specific cell types by direct antibody interactions. To establish a fluorescent basis for determining cell binding they used the GFP labelled wt ZZ-GFP-hFTN.

[3] = tested on: MNK1.1 cells; test: as above; format: cell-based, mouse
Description: as §1, §2, §3

[4] = tested on: HT-29 cells; test: Phenotypic cell death assay using Vybrant cell staining and flow cytometry; format: cell-based; details: after 48 h, free drug alone, 5 μM
Description: HT-29 cells were trypsinised and cell viability was assessed using the Trypan blue exclusion assay—count cells treated with Trypan blue dye using a haemocytometer, and determine the volume of cell suspension that contains 5×10^5 live cells. Live cells (5×10^5) seeded into a 12-well plate with a final volume of 500 μL. This final 500 μL volume will consist of 5×10^5 cells+medium+drug-Au-ZZ-hFTN+anti-EGFR antibody (0.5-1 μg). The plate was incubated in a tissue culture incubator set at 37° C., 5% CO2, 95% humidity for 24 h or 48 h before the experiment was stopped. Uptake of drug-Au-ZZ-hFTN by cells was stopped by removing the 500 μL solution containing test or control compounds, trypsinising cells and pelleting cells in preparation for cytotoxicity assays, e.g. Vybrant cell apoptosis assay. […] Within 30 min after the incubation period, the stained cells were analysed by flow cytometry, using 488 nm excitation with green fluorescence emission for YOPRO R-1 (i.e., 530/30 bandpass) and red fluorescence emission for propidium iodide (i.e., 610/20 bandpass), gating on cells to exclude debris. […] The stained cell population will separate into three groups: live cells show a low level of green fluorescence, apoptotic cells show an incrementally higher level of green fluorescence, and dead cells show both red and green fluorescence. […]

COc1cccc2c1C(=O)c1c(O)c3c(c(O)c1C2=O)C[C@@](O)(C(=O)CO)C[C@@H]3O[C@H]1C[C@H](N)[C@H](O)[C@H](C)O1 [Dox, doxorubicin]
drug presence in lysed cells by LC-MS [1]: present in the lysed cells

wt ZZ-GFP-hFTN: wild-type human heavy chain ferritin with N-terminal ZZ antibody binding domain and GFP, forms nanocage
binding of the nanocage to cells (GFP fluorescence) ([2]; absence of antibody): no discernible background binding
binding of the nanocage to cells (GFP fluorescence) ([2]; presence of anti-EGFR antibody): complete shift in the fluorescence of the population
binding of the nanocage to cells (GFP fluorescence) ([3]; absence of antibody): no discernible background binding
binding of the nanocage to cells (GFP fluorescence) ([3]; presence of anti-NK1.1 antibody): complete shift in the fluorescence of the population

CC[N+](C)(CC)CCC[n+]1c(-c2ccccc2)c2cc(N)ccc2c2ccc(N)cc21.[I-].[I-] [PI, propidium iodide]
drug presence in lysed cells by LC-MS [1]: present in the lysed cells

CC(=O)O[C@H]1C(=O)[C@@]2(C)[C@H]([C@H](OC(=O)c3ccccc3)[C@]3(O)C[C@H](OC(=O)[C@H](O)[C@@H](NC(=O)c4ccccc4)c4ccccc4)C(C)=C1C3(C)C)[C@]1(OC(C)=O)CO[C@@H]1C[C@@H]2O [Pac, Paclitaxel]
cell death [4]: ~9%
